One series deals with B-16 melanoma cell. As to the kind of experiment: Cytotoxicity, 50% growth inhibition of B-16 melanoma cell. Type of series: cell-based. As for the experimental part: (§1) B-16 melanoma cell, P388 leukemia cell or L 929 cell was cultivated together with a prescribed amount of a test drug on a 24-well or 96-well test plate and the number of living cells was measured one day or 3 days later to know the 50% growth inhibition concentration.

The next series concerns P388 leukemia cell. As to the kind of experiment: Cytotoxicity, 50% growth inhibition of P388 leukemia cell. Type of series: cell-based. Conditions: Mus musculus, read-out: 50% growth inhibition concentration (IC50). As for the experimental part: as §1
For a further series, the system named is L 929 cell. As to the kind of experiment: Cytotoxicity, 50% growth inhibition of L 929 cell. Type of series: cell-based. The method, then: as §1
A short description of series [1]: Acute toxicity, i.p. injection in BDF1 mouse. Conditions: in vivo, ip, 5 weeks old, female, intraperitoneal, read-out: 50% Lethal dose (LD50). In kind it is in vivo. As for the experimental part: (§2) A test drug was injected into the peritoneal cavity of BDF1 mouse (5 weeks old, female) to measure 50% lethal dose (LD50).
The nature of series [2]: Recovery effect on cachectin/TNF-induced reduction of lipoprotein lipase (LPL) in adipocytes. Type of series: cell-based. The settings on record: mouse, 3t3-l1 cells; read-out: Concentration at which OK exhibits cytotoxicity. As for the experimental part:
(§3) 3T3-L1 cells (5×10^4 cells per well) were cultivated in wells of 48-well test plate for about one week until the cell growth reached became confluent. Test drug and 4×10^-10 ^- 10 g/ml (32 unit/ml as TNF activity) of recombinant human TNF (rHu-TNF) were added, and the cultivation was further continued.
(§4) After 20 hours, the test drug and rHu-TNF were removed. Then 10 unit/ml of heparin was added, and after 90 min., activity of lipoprotein lipase (LPL) isolated from 3T3-L1 cell by heparin was measured according to the method as described in Nelsson-Ehle, P., et al., J. Lipid Res., 17, 536 (1976).
(§5) On the LPL activity measured, the recovery on the reduction of lipoprotein lipase production was calculated by the following formula: [formula]
(§6) ^1 The experiment was performed in the presence of rHu TNF (32

For series [3], the system named is lipoprotein lipase (LPL) of 3T3-L1 cells. The series is described as above. Type of series: cell-based. The method, then:
as §3, §4, §5, §6

A further series deals with L 929 cells. As to the kind of experiment: Effect on cytotoxic activity of TNF. Type of series: cell-based. The method, then:
L 929 cells (10^4 cells/well) was cultivated on a test plate having 96 wells, and after 24 hours, a test drug and recombinant human-tumor necrosis factor (rHu - TNF) were added thereto such that rHu - TNF became 2.5×10^-11 g/ml (TNF activity of 2 unit/ml), and then, after 24 hours, the number of living cells was measured.
The effect of test drug on the cytotoxicity of TNF was calculated according to the above-mentioned formula (A) and shown by "%" value.
^1 The experiments were effected in the presence of TNF (2 units/ml)

The test system of another series is BDF1 mouse. As to the kind of experiment: Acute toxicity, i.p. injection in BDF1 mouse. Type of series: in vivo. The method, then:
as §2

A further series in a line: Solubility. Type of series: physicochemical.
A short description of the next series: Stability. Type of series: physicochemical.
A further series in a line: Acid or base. In kind it is physicochemical.

Converted amounts (≈) assume the structure as drawn. “Also recorded” adds a separate entry of the source. Some results are limits rather than exact numbers.

The values that follow come from patent publication US4835176A, “Glycookadaic acid, preparation thereof and use thereof” (priority 1987, dated 1989).

The LD50 is the dose at which mortality reaches 50%.

Consider `C=C1C(O)C2OC3(CCC(C=CC(C)C4CC(C)=CC5(OC(CC(C)(O)C(=O)O)CCC5O)O4)O3)CCC2OC1C(O)CC(C)C1OC2(CCCCO2)CCC1C` (stereo not drawn) [OK, okadaic acid], for which the IC50 in the series on B-16 melanoma cell (Mus musculus, B16, 24 h, B-16 melanoma, cultivated for one day, read-out: 50% growth inhibition concentration (IC50)) amounted to 0.018 µg/mL (≈ 0.0224 µM); in the series with P388 leukemia cell, 0.024 µg/mL (≈ 0.0298 µM); in the series with L 929 cell (Mus musculus, L929, read-out: 50% growth inhibition concentration (IC50)) it was 0.084 µg/mL (≈ 0.104 µM). For the same compound, the median lethal dose (LD50) in series [1] came to 0.16 mg/kg. The MCC in series [2] came out at 0.1 µg/mL. In addition, in series [3] (OK, even at 0.1 μg/ml), the “Effect on lowered LPL production (in words)” value is “did not exhibit the effect of inhibition”. Further, in the series with L 929 cells, the “Effect on cytolytic activity of TNF (in words)” value is recorded as “Neither GOK nor OK affected the cytolytic activity of TNF”.
Turning to glycookadaic acid [GOK], the “50% growth inhibition concentration (IC50)” value with B-16 melanoma cell (B-16 melanoma, cultivated for one day) is 19 µg/mL; with L 929 cell, 28 µg/mL. Further, the “Cytotoxicity compared with OK” value in the series on B-16 melanoma cell (all cell species of Table 1) is “much weaker than that of OK”. The “Toxicity (in words)” value in the series with BDF1 mouse is “toxicity of GOK is low; also recorded: far safer drug than OK”. Moreover, the “50% Lethal dose (LD50)” value with BDF1 mouse (5 weeks old, female, intraperitoneal) is given as over 16 mg/kg. The “LD50 of GOK relative to that of OK” value with BDF1 mouse (intraperitoneal) is recorded as at least 100 times. Also, the “Recovery of LPL generation in adipocytes (in words)” value in [3] is given as “specifically recovers the lowering effect on the generation of lipoprotein lipase in adipocytes”. Moreover, the “Concentration with effect of recovering from the lowering of production of lipoprotein lipase” value in series [3] (3T3-L1 cells with rHu-TNF) fell in the range of 3 to 10 µg/mL. In addition, in the series on L 929 cells, the “Effect on cytolytic activity of TNF (in words)” value is listed as “Neither GOK nor OK affected the cytolytic activity of TNF; also recorded: does not suppress the cytotoxic activity of cachectin/TNF toward cancer cells”. Moreover, the Solubility entry was “Insoluble or sparsely soluble” in the series “Solubility” (acetone or chloroform) and “Easily soluble” in the series “Solubility” (methanol, ethanol or pyridine). Moreover, the values for the Stability result in the series “Stability” (acid) and in “Stability” (alkali) were “Unstable to acid” and “Relatively stable to alkali”, respectively. The Acid or base entry in “Acid or base” is recorded as “Weekly acidic substance”.
